Test results taken from patent US20030171544A1, “Alcohol dehydrogenase and use thereof” (DEGUSSA AG, priority 2001, published 2003).
Marks after values point to notes of the source that are not given here.

Tested on: alcohol dehydrogenase (ADHF1)
Assay: Reduction of ketones with lyophilized recombinant ADHF1 crude extract, GC analysis
Format: biochemical, Pseudomonas fluorescens (DSM 50106)
Details: for Conversion: Table 1, GC analysis, 6.4 μmol substrate, 1.25 mg enzyme crude extract, 0.1 M Tris pH 8.0, 20% (v/v) isopropanol, room temperature, time 20-21 h
Description: The activity of lyophilized alcohol dehydrogenase is determined using acetophenone as model substrate. The standardized reaction mixture (250 μl) contains 6.4 μmol of substrate dissolved in isopropanol, 1.25 mg of enzyme (crude extract) in 0.1 M Tris buffer (pH 8.0) and 20% (v/v) isopropanol as substrate for NADH-recycling dehydrogenase. The reactions are carried out at room temperature, unless explicitly stated otherwise. All values were determined three times. After the reaction has finished, the reaction mixture is extracted with twice the amount of chloroform and the organic phase is then dried over sodium sulfate. The reaction products were analyzed isothermally at 120° C. by GC measurements (Shimadzu GC 14A, Tokyo, flame ionization detector, integrator C5RA) using a chiral column (heptakis (2,6-O-methyl-3-O-pentyl)-β-cyclodextrin, 25m×0.25mm ID, Macherey & Nagel, Düren). The retention times are 1.55 min for acetophenone, 2.77 min for (R)-α-phenylethanol and 2.99 min for (S)-α-phenylethanol. The absolute configuration was determined by using commercial standards. Further GC analyses were carried out at a temperature rising from 90° C. to 120° C. at a rate of 5° C./min. Here the retention times were 0.95 min for cyclopentanone, 1.37 min for cyclopentanol, 2.85 min for cycloheptanone, 4.29 min for cycloheptanol, 1.42 min for cyclohexanone and 2.12 min for cyclohexanol.

Structure (SMILES): O=C1CCCCC1 [Cyclohexanone]
- Conversion: 100%

Structure (SMILES): O=C1CCCC1 [Cyclopentanone]
- Conversion: 53%

Structure (SMILES): O=C1CCCCCC1 [Cycloheptanone]
- Conversion: 51%

Structure (SMILES): CC(=O)c1ccccc1 [Substrate 1, acetophenone]
- Conversion: 95^b %
- yield of (R)-α-phenylethanol (conversion of acetophenone by ADHF1): 95%
